Results from patent US8697728B2, “Perhexiline for use in the treatment of hypertrophic cardiomyopathy (HCM)” (The University of Birmingham, priority 2009, dated 2014).

Legend:
symptomatic HCM patients [1] = assay: Cardiopulmonary exercise test (peak oxygen consumption), randomized double-blind placebo-controlled study; type: in vivo, human; settings: p=0.003 vs placebo
Excerpt: (§1) The study was approved by the South Birmingham Research Ethics Committee and the investigation conforms with the principles outlined in the Declaration of Helsinki. All study participants provided written informed consent. The study was a randomized, double blind, placebo-controlled parallel-group design of minimum 3 months duration. FIG. 1 represents a flow chart of the study. The pre-defined primary end point was peak oxygen consumption (peak VO2). Pre-defined secondary end points were symptomatic status, resting myocardial energetics (PCr/γ-ATP ratio) and diastolic function at rest and during exercise (nTTPF). 33 controls of similar age and gender distribution were recruited for comparison with baseline data of HCM patients. […]
Following baseline studies, patients were randomized in a double-blind fashion to receive either perhexiline (n=25) or placebo (n=21) 100 mg OD. […] At the end of study, patients were re-evaluated as described earlier.
Data were analyzed using SPSS ver. 15.0 for Window and Microsoft Office Excel 2007, and expressed as Mean±Standard Deviation (SD). Comparison of continuous variables between Perhexiline and Placebo baseline data were determined by unpaired Student's t-test (2-tail) if variables were normally distributed and the Mann-Whitney U-test if the data were non-normally distributed. […]

symptomatic HCM patients [2] = assay: Radionuclide ventriculography (diastolic ventricular filling, nTTPF); type: in vivo, human; settings: perhexiline group, p=0.03 vs placebo response
Excerpt: as §1, with “(nTTPF).” for “(nTTPF). 33 controls of similar age and gender distribution were recruited for comparison with baseline data of HCM patients.”
Diastolic filling were assessed by equilibrium R-wave gated blood pool scintigraphy using a standard technique at rest and during graded semi erect exercise on a cycle ergometer (Atherton J J, Moore T D, Lele S S et al. Diastolic ventricular interaction in chronic heart failure. Lancet 1997;349 (9067):1720-1724; Lele S S, Macfarlane D, Morrison S, Thomson H, Khafagi F, Frenneaux M. Determinants of exercise capacity in patients with coronary artery disease and mild to moderate systolic dysfunction. Role of heart rate and diastolic filling abnormalities. Eur Heart J 1996;17(2):204-212). […]
Data were analyzed using SPSS ver. 15.0 for Window and Microsoft Office Excel 2007, and expressed as Mean±Standard Deviation (SD). […]

symptomatic HCM patients [3] = assay: Side effects and deaths during the study; type: in vivo; settings: perhexiline group (n=25), during the first week of treatment
Excerpt: The study was a randomized, double blind, placebo-controlled parallel-group design of minimum 3 months duration. […] The pre-defined primary end point was peak oxygen consumption (peak VO2). Pre-defined secondary end points were symptomatic status, resting myocardial energetics (PCr/γ-ATP ratio) and diastolic function at rest and during exercise (nTTPF).
Diabetic patients were also excluded to maintain the blindness of the study as Perhexiline may lead to a reduction in plasma glucose in such patients necessitating a reduction in anti-diabetic therapy. 46 consecutive consenting patients who met these entry criteria were recruited into the study.
Following baseline studies, patients were randomized in a double-blind fashion to receive either perhexiline (n=25) or placebo (n=21) 100 mg OD. Serum perhexiline levels were obtained at 1 and 4 weeks after initiation of the drug. Dose adjustments were advised by an unblinded physician according to serum level to achieve therapeutic level and to avoid drug toxicity. Identical dosage adjustments were also made for randomly allocated placebo-treated patients by the unblinded observer to ensure that blinding of the investigators was maintained. At the end of study, patients were re-evaluated as described earlier.

## C1CCC(C(CC2CCCCN2)C2CCCCC2)CC1 (centres unmarked) [perhexiline, 2-(2,2-dicyclohexylethyl) piperidine]
Symptomatic HCM patients [1]; FIG. 3A legend
  Effect on peak oxygen consumption (peak VO2, exercise capacity), in words: increases
Symptomatic HCM patients [1]; HCM patients, perhexiline group, after treatment vs baseline
  Change in Peak VO2 after treatment (increase): 2.09 mL/min/kg
Symptomatic HCM patients [2]
  εnTTPF (change of nTTPF from rest to exercise) on therapy: 0.00 ± 0.003 s
Symptomatic HCM patients [3]
  Side effect: dizziness (number of patients): 2
  Side effect: transient nausea (number of patients): 3
